This test relates to corpora allata which have been surgically removed from newly molted 5 stadium Manduca sexta larvae. Description: in vitro JH biosynthesis assay (rate of [14C]JH biosynthesis by excised CC/CA complex). The class given is cell-based. How it is done: The biological activity of native LAS and LASA's is tested in an in vitro JH-biosynthesis assay using newly molted 5th stadium Manduca sexta larval CC/CA complex. The biological activity of each of the LAS and LASA preparations made according to the following examples is assayed according to a procedure essentially as described (except for media employed) by Pratt and Tobe, 1974 Life Sci vl4:575-586, which is incorporated by reference. This procedure measures the rate of biosynthesis of Juvenile Hormone (JH) by the corpora allata which have been surgically removed from newly molted 5 stadium Manduca sexta larvae. One corpus cardiacum-corpus allatum complex is maintained in 100 µl of TC-199 medium (components of which are shown below) and Hank's salts, and is shaken using a mechanical shaker. The sample to be tested for LAS-like activity is dried and dissolved in TC-199 medium. Then an equal volume of TC-199 medium containing [^14C] methionine is added, and allowed to incubate for 4 hours. […] is extracted from the medium using iso-octane and the extract is assayed by liquid scintillation counting. The rate of biosynthesis by glands exposed to the sample is compared to the rate observed for control glands. The presence of LAS or LASA causes a decrease in the rate of biosynthesis.

The source of these data is patent EP0421935B1, “Insect neuropeptides” (Novartis AG, priority 1989, dated 1999).

Bridge positions count the residues as written; N and C are the ends. Square brackets hold non-standard residues; d marks the D form. Peptide text beside a SMILES is read from it. pGlu = O=C1CC[C@@H](C(=O)O)N1

As for `CC[C@H](C)[C@@H]1NC(=O)[C@@H]2CCCN2C(=O)[C@H](CC(N)=O)NC(=O)[C@H](Cc2ccccc2)NC(=O)[C@H](Cc2ccc(O)cc2)NC(=O)[C@@H](NC(=O)[C@H](CCC(N)=O)NC(=O)[C@H](CCCNC(=N)N)NC(=O)[C@H](Cc2ccccc2)NC(=O)[C@H](CCCNC(=N)N)NC(=O)[C@@H](NC(=O)[C@@H]2CCC(=O)N2)C(C)C)CSSC[C@@H](C(=O)N[C@@H](Cc2ccccc2)C(=O)O)NC(=O)[C@H](CO)NC1=O` [LAS, pGlu-Val-Arg-Phe-Arg-Gln-Cys-Tyr-Phe-Asn-Pro-Ile-Ser-Cys-Phe-OH] ([pGlu]VRFRQCYFNPISCF-OH; disulfide 7-14), under “crude oxidized synthetic peptide, before reversed phase LC purification”, the “allatostatin activity in bioassay” value is reported as “exhibits allatostatin activity”.
`CC[C@H](C)[C@@H]1NC(=O)[C@@H]2CCCN2C(=O)[C@H](CC(N)=O)NC(=O)[C@H](Cc2ccccc2)NC(=O)[C@H](Cc2ccc(O)cc2)NC(=O)[C@@H](NC(=O)[C@H](CCC(N)=O)NC(=O)[C@H](CCCNC(=N)N)NC(=O)[C@H](Cc2ccccc2)NC(=O)[C@H](CCCNC(=N)N)NC(=O)[C@@H](NC(=O)[C@@H]2CCC(=O)N2)C(C)C)CSSC[C@@H](C(=O)N[C@@H](Cc2ccccc2)C(N)=O)NC(=O)[C@H](CO)NC1=O` [amidated form] ([pGlu]VRFRQCYFNPISCF-NH2; disulfide 7-14): the level of activity result (amidated carboxy terminus compared with Native LAS with free carboxy terminus, the test is not given) is “same level of activity”.
